# Source: US20160120853A1, “TACROLIMUS AND ANALOGUES THEREOF FOR MEDICAL USE” (CHRONOS THERAPEUTICS LIMITED, priority 2013, published 2016)
# Entries after “also recorded” stand apart in the source; their conditions may differ.
# Experiments:
# [1] = system: worms; assay: worm lifespan, strain not stated (close structural analogues, dosing frequency); assay type: in vivo; design: Healthspan / Median Lifespan / Max Lifespan: unit not given here; conditions: for ability to extend the lifespan of worms compared with tacrolimus: lifespan plots FIG. 7 / FIG. 8
# Text: (§1) Worm cultures of at least 80 worms were manually assessed daily for the duration of the lifespan.
# [2] = blood / plasma metabolic biomarkers of aged rats after 6 m treatment; assay type: in vivo, rat
# Text: A range of techniques has been used to determine the effect RDC5 has on levels of blood biomarkers of obesity and metabolic disorders.
# Metabolic biomarkers tested included: • Ketone Bodies—kinetic enzymatic • Free Fatty acids—ACS-ACOD Enzymatic • Glycerol—Calometric • Triglycerides—GPO-POD • HDL Cholesterol—CHO-PAP • LDL Cholesterol—Enzymatic • Total Cholesterol—CHO-PAP
# The RDC5 treated and control treated animals had their blood plasma profiled at the end of the investigations.
# [3] = system: TNF-α; assay: blood TNF-α levels in healthy human volunteers after 0.3 mg capsule; assay type: in vivo; conditions: 0.3 mg oral capsule
# Experimental: (§2) One oral capsule as above containing 0.3 mg tacrolimus was administered to groups of healthy human volunteers. […] The average trough level of tacrolimus (level after 24 hours of administration of each dose) observed was approximately 220 pg/mL.
# [4] = aged rat study: weekly body weight and survival; assay type: in vivo
# Text: Aged rats are known to increase in body weight dramatically in late adulthood. Aged rats were being used as a model in RAT_ND_01 and body weights and tissue samples were taken from the rats in this trial. Rats were 18 m of age at the start of the 6 m trial. The dosage is seen in FIG. 4.
# Throughout this study (i.e. from 18 months of age onwards), individual weekly body weight assessments were made for both the control and RDC5 treated group. […] At the 1 and 2 week time-points, before the onset of treatment, no significant difference between RDC5 and control treatment could be observed. Control treated rat body weight continued to increase over time from approximately 250 g to over 320 g at the 6 month time-point (at 24 months of age). […] Weight levels dropped initially however not below a healthy age (approx. 230 g) and remained constant (+/−20 g) for the remainder of the study.
# Fifty female Fischer rats initially aged 18 months were used in this study. Animals were housed at standard temperature (22±1° C.) in light controlled environment (lights on from 7 am to 8 pm) with ad libitum access to food and water with softer food introduced at 17 weeks to encourage food intake. Half the animals were treated with vehicle (5 ml/kg, s.c.) 6 days a week and half were treated with RDC5 (1 mg/kg, s.c.) 6 days a week. Individual body weights were recorded at baseline and then once a week until the end of the study.
# [5] = system: S. Cerevisiae; assay: yeast bioscreen, Chronological Lifespan Profile of ageing yeast cultures; assay type: cell-based
# Text: The yeast bioscreen measures the Chronological Lifespan Profile of an ageing yeast cultures. The median lifespan is defined as the time at which 50% of a given population has died. Relative viability (expressed in the below chart) compares the effect of treatment on a cultures viability as a fraction of control vehicle treated cultures.
# RDC5 is thus believed to be able to delay ageing and the onset of age-related diseases such as unwanted fat accumulation.
# [6] = system: C. elegans; assay: lipid accumulation in worms, Oil-Red-O staining; assay type: in vivo; conditions: for age dependent increase in fat (lipid) accumulation: Oil-Red-O, versus DMSO control
# Text: Tacrolimus is able to delay the age dependent increase in fat accumulation in C. elegans. Worms are a versatile model of obesity ref: (Zheng & Greenway, 2012)
# Oil-Red-O is a fat-soluble dye used for staining lipids and is quantified by colour light microscopy.
# [7] = post mortem MRI scanning of aged rats, fat:lean ratio; assay type: in vivo, rat; conditions: for sub-cutaneous fat / visceral fat / fat within the body cavity: 24 month old rats, MRI, versus control treated
# Text: FIG. 11 presents MIR data comparing 3 month old untreated animal, 24 month old control treated animal and 24 month old tacrolimus treated animal. […] This is consistent with a cosmetic improvement (with respect to reduction in sub-cutaneous fat) and a health improvement (with respect to reduction of fat near internal organs) produced by tacrolimus treatment. The MIR images are marked (areas 1) to show internal fat areas. The sub-cutaneous fat layer is the light grey outer ring only easily seen in the 24 month old untreated control.
# [8] = system: Bus5 worms; assay: worm lifespan (Healthspan, Median lifespan) in Bus5 worms; assay type: in vivo; conditions: for Healthspan: Control 10.93; for Median Lifespan: Control 15.08
# Text: as §1
# [9] = system: Bus8 worms; assay: worm lifespan (Healthspan, Median lifespan) in Bus8 background; assay type: in vivo; design: Healthspan: unit not given here; conditions: for Healthspan: Control 6.87; for Median Lifespan: Control 10.10
# Text: as §1
# [10] = blood levels of tacrolimus after one 0.3 mg oral capsule in healthy human volunteers; assay type: in vivo
# Experimental: A hard gelatine capsule was filled with the following composition:
# as §2
# [11] = system: Osteoblast cells; assay: response to oxidative stress of Osteoblast cells; assay type: cell-based
# [12] = 6 m treatment in rats, versus control
# [13] = blood plasma at end of study, versus control treated
# [14] = FIG. 8 experiment, Control 10.4
compound,measurement,setting,value
CC[C@@H]1/C=C(\C)C[C@H](C)C[C@H](OC)[C@H]2O[C@@](O)(C(=O)C(=O)N3CCCC[C@H]3C(=O)O[C@H](/C(C)=C/[C@@H]3CC[C@@H](O)[C@H](OC)C3)[C@H](C)[C@@H](O)CC1=O)[C@H](C)C[C@@H]2OC [Ascomycin],Healthspan,"[1]; FIG. 7 experiment, Control 3.0",4.1
same,Median Lifespan,"[1]; FIG. 7 experiment, Control 5.7",7.2
same,Max Lifespan,"[1]; FIG. 7 experiment, Control 8.7",10.6
same,ability to extend the lifespan of worms compared with tacrolimus,[1],as effectively as tacrolimus
"C=CC[C@@H]1/C=C(\C)C[C@H](C)C[C@H](OC)[C@H]2O[C@@](O)(C(=O)C(=O)N3CCCC[C@H]3C(=O)O[C@H](/C(C)=C/[C@@H]3CC[C@@H](O)[C@H](OC)C3)[C@H](C)[C@@H](O)CC1=O)[C@H](C)C[C@@H]2OC [RDC5, tacrolimus]",HDL,[2]; [12],significant reductions
same,LDL,[2]; [12],significant reductions
same,free fatty acids,[2]; [12],reduction is not statistically significant
same,glycerol,[2]; [12],reduction is not statistically significant
same,ketone bodies,[2]; [12],reduction is not statistically significant
same,total cholesterol,[2]; [12],significant reductions
same,triglycerides,[2]; [12],significant reductions; also recorded: beneficial reduction
same,reduction in lactate dehydrogenase levels,[2]; [13],50%
same,reduction in total cholesterol,[2]; [13],40%
same,Healthspan,"[1]; FIG. 7 experiment, Control 3.0, listed as RDC5 (Evita)",4.5
same,Healthspan,"[1]; FIG. 7 experiment, Control 3.0, listed as RDC5 (Sigma)",4.6
same,Median Lifespan,"[1]; FIG. 7 experiment, Control 5.7, listed as RDC5 (Evita)",7.1
same,Median Lifespan,"[1]; FIG. 7 experiment, Control 5.7, listed as RDC5 (Sigma)",7.8
same,Max Lifespan,"[1]; FIG. 7 experiment, Control 8.7, listed as RDC5 (Evita)",10.3
same,Max Lifespan,"[1]; FIG. 7 experiment, Control 8.7, listed as RDC5 (Sigma)",11.2
same,Healthspan,"[1]; FIG. 8 experiment, Control 5.9",7.8
same,Median Lifespan,"[1]; FIG. 8 experiment, Control 8.1",10.8
same,Max Lifespan,[1]; [14],13.8
same,lifespan compared to control,"[1]; dosing on one third of days, except when dosing not commenced early in lifespan",significant increases
same,lifespan compared to control,[1]; dosing on two thirds of days,significant increases
same,"shape of dose response, worm lifespan extension",[1]; in vivo,bell shaped dose response
same,changes in blood TNF-α levels,[3],No significant changes
same,age related weight gain,[4]; 1 mg/kg s.c. 6 days a week,did not show age related weight gain
same,survival of animals at the end of the study versus control,"[4]; 1 mg/kg s.c. 6 days a week, 6 months",No significant differences
same,lighter than control treated age-matched rats at end of study,"[4]; 6 month study, 24 months of age",28%
same,effect on growth rate,[5]; S. Cerevisiae,without effecting growth rate
same,median lifespan of yeast cultures versus control treated cultures,[5]; S. Cerevisiae chronological lifespan,significantly longer
same,age dependent increase in fat (lipid) accumulation,[6],shallower rise
same,age dependent increase in fat (lipid) accumulation,[6]; listed as Tacrolimus,able to delay
same,time at which maximal lipid accumulation happens,"[6]; days post adulthood, DMSO control day 4",7 days
same,sub-cutaneous fat,[7],less
same,visceral fat / fat within the body cavity,[7],less
same,sub-cutaneous fat,[7]; listed as tacrolimus,akin to the 3 month old untreated animal
same,visceral fat / fat within the body cavity,[7]; listed as tacrolimus,much less
same,average body fat,"[7]; rats at 24 months, control roughly 40%, 3 month rats roughly 20%",roughly 30%
same,Healthspan % increase wrt control,"[8]; Bus5, 1 ug/ml",33%
same,Median Lifespan % increase wrt control,"[8]; Bus5, 1 ug/ml",23%
same,Healthspan,"[8]; Bus5, 1 ug/ml",14.55
same,Median Lifespan,"[8]; Bus5, 1 ug/ml",18.54
same,Healthspan % increase wrt control,"[8]; Bus5, 10 ug/ml",23%
same,Median Lifespan % increase wrt control,"[8]; Bus5, 10 ug/ml",26%
same,Healthspan,"[8]; Bus5, 10 ug/ml",13.43
same,Median Lifespan,"[8]; Bus5, 10 ug/ml",19.03
same,Healthspan % increase wrt control,"[8]; Bus5, 40 ug/ml",−6%
same,Median Lifespan % increase wrt control,"[8]; Bus5, 40 ug/ml",0.5%
same,Healthspan,"[8]; Bus5, 40 ug/ml",10.28
same,Median Lifespan,"[8]; Bus5, 40 ug/ml",15.17
same,Healthspan % increase wrt control,"[9]; Bus8, 1 ug/ml",0.5%
same,Median Lifespan % increase wrt control,"[9]; Bus8, 1 ug/ml",7.5%
same,Healthspan,"[9]; Bus8, 1 ug/ml",6.90
same,Median Lifespan,"[9]; Bus8, 1 ug/ml",10.86
same,Healthspan % increase wrt control,"[9]; Bus8, 10 ug/ml",14%
same,Median Lifespan % increase wrt control,"[9]; Bus8, 10 ug/ml",20%
same,Healthspan,"[9]; Bus8, 10 ug/ml",7.85
same,Median Lifespan,"[9]; Bus8, 10 ug/ml",12.18
same,Healthspan % increase wrt control,"[9]; Bus8, 20 ug/ml",−9%
same,Median Lifespan % increase wrt control,"[9]; Bus8, 20 ug/ml",16%
same,Healthspan,"[9]; Bus8, 20 ug/ml",6.23
same,Median Lifespan,"[9]; Bus8, 20 ug/ml",11.70
same,Healthspan % increase wrt control,"[9]; Bus8, 40 ug/ml",−3%
same,Median Lifespan % increase wrt control,"[9]; Bus8, 40 ug/ml",16%
same,Healthspan,"[9]; Bus8, 40 ug/ml",6.67
same,Median Lifespan,"[9]; Bus8, 40 ug/ml",11.70
same,dose at which efficacy peaks for Median Lifespan extension,[9]; Bus8 worms,10 µg/mL
same,most efficacious dose at extending Healthspan,"[9]; Bus8 worms, doses tested 1, 10, 20, 40 ug/ml",10 µg/mL
same,Healthspan and Median lifespan of populations of worms,"[9]; cultures of at least 80 worms, assessed daily",able to extend
same,least effective dose,"[9]; dose response in worms, FIG. 9",40 µg/mL
same,average peak level of tacrolimus,"[10]; 0.3 mg oral capsule, healthy volunteers",approximately 3700 pg/mL
same,AUC(0-t),"[10]; human, blood, 0.3 mg oral capsule, healthy volunteers, read-out: average area under the curve AUC 0-t",~23.5 ng·h/mL
same,concentration at 24 h,"[10]; human, blood, 0.3 mg oral capsule, level after 24 hours of administration of each dose, healthy volunteers, read-out: average trough level of tacrolimus",~0.22 ng/mL
same,expected trough level,"[10]; two capsules, single dose of 0.6 mg",about 440 pg/mL
same,"shape of dose response, response to oxidative stress",[11],bell shaped dose response
CCC[C@@H]1/C=C(\C)C[C@H](C)C[C@H](OC)C2O[C@@](O)(C(=O)C(=O)N3CCCC[C@H]3C(=O)O[C@H](/C(C)=C/[C@@H]3CC[C@@H](O)[C@H](OC)C3)[C@H](C)[C@@H](O)CC1=O)[C@H](C)C[C@@H]2OC [Dihydrotacrolimus],Healthspan,"[1]; FIG. 8 experiment, Control 5.9",7.3
same,Median Lifespan,"[1]; FIG. 8 experiment, Control 8.1",10.3
same,Max Lifespan,[1]; [14],13.2
same,ability to extend the lifespan of worms compared with tacrolimus,[1],almost as effectively as tacrolimus
